# Measurements from patent EP1257552B1, “XANTHINE DERIVATIVES, INTERMEDIATES AND USE FOR TREATING OSTEOPOROSIS” (Aventis Pharma S.A., priority 2000, dated 2001).
# Columns and labels:
# Format in all cases: in vivo
# [1] = tested on: OS TIBIA; assay: Bone mineral density (DEXA) of the tibia in the ovariectomised rat osteopenia model, preventive treatment; settings: once daily, 5 days/week for 4 weeks, (BMD treated - BMD OVX)/(BMD SHAM - BMD OVX) x 100
# Description: (§1) L'impact osseux de ces dérivés xanthine a été évalué sur un modèle d'ostéopénie, la rate ovariectomisée à l'âge de 3 mois, afin de déterminer ses effets sur la masse osseuse, et sur l'activité de formation et de résorption osseuse. Les animaux sont traités en préventif.
# (§2) Sur ce modèle d'ostéopénie l'effet de ces dérivés xanthine est comparé à celui de la PTH • Produit à tester : composé de l'exemple 1 • véhicule(s) : méthylcellulose 0,5 % ou sérum physiologique • dose(s) : 10 mg/kg pour le produit. la PTH est administrée à la dose de 10 µg ou 25 µg/kg/j par voie sous cutanée • nombre d'administrations : une fois/jour; 5 jours/semaine pendant 4 semaines • voie d'administration : voie orale pour le produit. La PTH est administrée par voie sous cutanée • volume : 1 ml/kg p o et s c • délai entre l'injection et le sacrifice : 24 heures • nombre d'administrations : 20
# (§3) Des rats femelles âgées de 3 mois et pesant environ 250-300 g sont ovariectomisées sous anesthésie à l'Imalgène 1000, à la dose de 100 mg/kg par voie intrapéritonéale (i.p) et sous un volume de 1 ml/kg. Ils reçoivent également du Nembutal (3 mg/kg i.p. sous un volume de 0,3 ml/kg). Les animaux sont répartis en groupes de 8 rats. Après incision latérale, les plans cutanés et musculaires sont sectionnés. L'exérèse de chaque ovaire se fait après ligature de l'oviducte. Les rats "SHAM" sont anesthésiés dans les mêmes conditions. Après incision des plans cutanés et musculaires, chaque ovaire est exposé puis replacé in situ.
# (§4) Les effets des produits sont déterminés après un traitement préventif. Les traitements débutent 24 heures après ovariectomie. Les animaux sont traités pendant 4 semaines, et se répartissent de la façon suivante : • un groupe témoin Sham recevant le ou les véhicules • un groupe témoin OVX recevant le ou les véhicules • OVX + dérivé xanthine • OVX + PTH
# La masse osseuse (BMD ou Bone Mineral Density = densité minérale osseuse) est mesurée par absorptiométrie biphotonique à rayons X à double énergie (DEXA). Les mesures sont réalisées sur les os excisés et débarrassés de tous les tissus mous. […]
# [2] = tested on: UTERUS; assay: Uterus weight in the ovariectomised rat osteopenia model; settings: 4 weeks, weight increase in % of uterus weight of OVX animals receiving solvent only
# Description: as §1, §2, §3, §4
# Les utérus sont prélevés. Ces derniers sont pesés. L'augmentation du poids est exprimée, en % du poids de l'utérus des animaux ovariectomisés ne recevant que le solvant. • au niveau osseux : […]
# [3] = tested on: Cholestérol; assay: Serum cholesterol level in the ovariectomised rat osteopenia model; settings: 4 weeks, decrease of serum cholesterol in % versus OVX animals receiving solvent only
# Description: as §1, §2, §3, §4
# Au terme des 4 semaines de traitement, les animaux sont décapités par guillotine. Les sérums recueillis après centrifugation sont conservés à -20°C. […]
UTERUS Poids % ([2]; 10 mg/kg po) [%],Molecule,OS TIBIA Densité % ([1]; 10 mg/kg po) [%],Cholestérol % ([3]; 10 mg/kg po),OS TIBIA Densité % ([1]; 10 µg/kg sc) [%],OS TIBIA Densité % ([1]; 25 µg/kg sc) [%],UTERUS Poids % ([2]; 10 µg/kg sc),UTERUS Poids % ([2]; 25 µg/kg sc) [%],Cholestérol % ([3]; 10 µg/kg sc),Cholestérol % ([3]; 25 µg/kg sc)
15,"O=c1c2[nH]cnc2n(-c2ccccc2)c(=O)n1Cc1ccncc1 [ex 1, chlorhydratede 3,7-dihydro-3-phényl-1-(4-pyridinylméthyl)-1H-purine-2,6-dione]",60,Pas d'effet,–,–,–,–,–,–
–,PTH,–,–,69,100,Pas d'effet,9,Pas d'effet,Pas d'effet
